Results taken from patent US20210145850A1, “COMPOSITION, FOR OSTEOARTHRITIS TREATMENT, COMPRISING HYDROPHILIZED SULFASALAZINE AND HYALURONIC ACID AND METHOD FOR PREPARING SAME” (BMI KOREA CO., LTD, priority 2015, published 2021).

Assays:
[1] = system: osteoarthritis animal model induced by 1 mg MIA (Monosodium IodoAcetate) in synovium; test: In vivo anti-osteoarthritis efficacy test, X-ray of joint region; design: species or system rat (Sprague Dawley)
Description: FIG. 4 is X-ray radiographs of osteoarthritis animal model (rat) induced by treating 1 mg MIA in synovium at 8 weeks after administering the osteoarthritis composition comprising hydrophilized sulfasalazine and hyaluronic acid according to the present invention of 0 to 8 mM. After inducing an osteoarthritis animal model by treating 1 mg MIA (Monosodium IodoAcetate) to synovium of 8 week-old rat (Sprague Dawley), after 1 week, mixtures prepared in Example 1 was administered by intraarticular injection.

[2] = taken orally, maximum dose of 4 g/day; cited from earlier work
[3] = as component of synovial fluid; cited from earlier work

Row | Compound | anti-osteoarthritis effect ([1]; less than 2 mM (0.08 w/v %)) | osteoarthritis treatment effect ([1]; low concentration, for example 1 mM) | blood concentration [2] | half life [3]
1 | O=C(O)c1cc(/N=N/c2ccc(S(=O)(=O)Nc3ccccn3)cc2)ccc1O [sulfasalazine] | anti-osteoarthritis effect could not be shown | could not show an effective level of osteoarthritis treatment effect | 12000 ng/mL | –
2 | hyaluronic acid | – | – | – | more than 13 hours
